Values joined by “and” are separate entries in the source; they are usually repeats but may differ in a detail not shown here. Identical values can stand only once.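 Test compounds were applied to cells in 96-well plates for 48 hours at 5 doses. Abbreviation: GI50, concentration required for 50% inhibition of growth. At the TGI there is no net growth.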
What was measured:
Test in all cases: DTP human tumour cell line panel, 48 h
BT-549 breast = test system: BT-549 breast
UACC-62 melanoma = test system: UACC-62 melanoma
MDA-MB-231 breast = test system: MDA-MB-231 breast
CCRF-CEM leukemia = test system: CCRF-CEM leukemia
SK-MEL-5 melanoma = test system: SK-MEL-5 melanoma
IGROV1 ovarian = test system: IGROV1 ovarian
UO-31 renal = test system: UO-31 renal
SF-268 CNS = test system: SF-268 CNS
NCI-H226 lung = test system: NCI-H226 lung
KM12 colon = test system: KM12 colon

| Structure (SMILES) | TGI (BT-549 breast) | TGI (UACC-62 melanoma) [µM] | TGI (MDA-MB-231 breast) | TGI (CCRF-CEM leukemia) | TGI (SK-MEL-5 melanoma) | TGI (IGROV1 ovarian) | TGI (UO-31 renal) | TGI (SF-268 CNS) | TGI (NCI-H226 lung) | TGI (KM12 colon) | GI50 (BT-549 breast) | GI50 (UACC-62 melanoma) [µM] | GI50 (MDA-MB-231 breast) | GI50 (CCRF-CEM leukemia) | GI50 (SK-MEL-5 melanoma) | GI50 (IGROV1 ovarian) | GI50 (UO-31 renal) | GI50 (SF-268 CNS) | GI50 (NCI-H226 lung) | GI50 (KM12 colon) |
| --- | --- | --- | --- | --- | --- | --- | --- | --- | --- | --- | --- | --- | --- | --- | --- | --- | --- | --- | --- | --- |
| COc1ccc(-c2c(C)c(C(=O)O)nc(-c3ccc4c(O)c(OC)c5c(c4n3)=NC(C)(C)N=5)c2N)c(O)c1OC | 82.7 µM | 62.2 | > 100 µM | 24.4 µM | 25.4 µM | > 100 µM | 27.5 µM | 21.6 µM | 63.1 µM | 33.1 µM |  |  |  |  |  |  |  |  |  |  |
| CCOc1ccc2c(-c3ccnc(Nc4cc(OC)cc(C(F)(F)F)c4)n3)cnn2n1 | > 25 µM | > 25 | > 22.5 µM | > 25 µM | > 25 µM | > 25 µM | > 25 µM | > 25 µM | > 25 µM | > 25 µM | 18.2 µM | > 10.9 | 9.6 µM | > 25 µM | > 14.8 µM | 4.87 µM | > 25 µM | > 18.9 µM | > 25 µM | 3.58 µM |
| C[C@H]1[C@H](C)N1CC(O)Cn1ccnc1[N+](=O)[O-] (some centres not stated) | > 100 µM | > 100 | > 100 µM | > 100 µM | > 100 µM | > 100 µM | > 100 µM | > 100 µM | > 100 µM | > 100 µM |  |  |  |  |  |  |  |  |  |  |
| CN1C(=O)c2ccc3ccccc3c2C1=O | > 100 µM | > 100 | > 100 µM | > 100 µM | > 100 µM | > 100 µM | > 100 µM | > 100 µM | > 100 µM | > 100 µM |  |  |  |  |  |  |  |  |  |  |
| COc1cc(/C=C/c2ccc(C)cc2)cc(OC)c1OC | 19 µM | 15.6 | > 100 µM | 25.4 µM | 13.3 µM | > 91 µM | 23.6 µM | 11.2 µM | 11.4 µM | 18.1 µM |  |  |  |  |  |  |  |  |  |  |
| COc1ccc(C(=O)Cn2c(C(=O)c3ccccc3)nc3ccccc32)cc1 | > 100 µM | > 100 | > 100 µM | > 58.1 µM | 6.06 µM | > 100 µM | > 100 µM | > 100 µM | > 100 µM | > 100 µM | 5.9 µM |  | 7.38 µM | 2.87 µM | 2.06 µM | 6.19 µM | 13.3 µM | 4.18 µM | > 90.5 µM | 1.64 µM |
| NC(=N\N=C/c1ccc(O)cc1)/C(N)=N\N=C/c1ccc(O)cc1 | > 100 µM | > 52 | > 100 µM | > 100 µM | 73.1 µM | > 100 µM | > 100 µM | > 100 µM | > 100 µM | > 100 µM | 77.5 µM | 2.22 | 10.7 µM | 0.324 µM | 3.06 µM | > 59.6 µM | 1.21 µM | 16.4 µM | > 100 µM | 1.75 µM |
| [2H]C([2H])([2H])NC(=O)c1nnc(NC(=O)C2CC2)cc1Nc1cccc(-c2ncn(C)n2)c1OC | > 100 µM | > 100 | > 100 µM | > 100 µM | > 100 µM | > 100 µM | 60.4 µM | > 100 µM | > 100 µM | > 100 µM | 23.2 µM | 91.6 | 19.1 µM | 19.8 µM | 50.2 µM | 6.96 µM | 5.93 µM | 45.7 µM | > 100 µM | 32.1 µM |
| O=[N+]([O-])c1cc[n+]([O-])c2ccccc12 | 0.728 µM | 0.698 | 1.48 µM | 5.27 µM | 0.437 µM | 1.03 µM | 0.604 µM | 1.24 µM | 1.38 µM | 0.332 µM | 0.2 µM | 0.231 | 0.282 µM | 1.55 µM | 0.184 µM | 0.259 µM | 0.191 µM | 0.282 µM | 0.311 µM | 0.0832 µM |
| O=C1NC(N/N=C\C(O)C(O)C(O)C(O)CO)=N/C1=C/c1ccccc1 (configuration not stated) | > 100 µM and 38.7 µM | > 100 | > 100 µM and 33.4 µM | > 100 µM and 97.7 µM and > 57.7 µM | > 100 µM and 29.2 µM | > 100 µM and 33.3 µM | > 100 µM and 32.2 µM | > 100 µM and 42.7 µM | > 100 µM and 40.8 µM | > 100 µM and 36.7 µM | 80.6 µM and 16.3 µM and > 100 µM |  | 51.7 µM and 15.4 µM and > 100 µM | 37.1 µM and 10.2 µM and 37.7 µM | 44.5 µM and 14.8 µM and > 100 µM | > 100 µM and 16.2 µM | > 100 µM and 17.3 µM | > 100 µM and 15.2 µM | > 100 µM and 19.5 µM | 41.6 µM and 16.2 µM and > 100 µM |
| O=C(NCCN1CCOCC1)OCc1nc2nc(Cl)nc(N3CCOCC3)c2[nH]1 | > 100 µM | > 100 | > 100 µM | > 100 µM | 4.72 µM | > 100 µM | > 100 µM | > 100 µM | > 100 µM | > 100 µM | 3.48 µM | 2.98 | 2.91 µM | 2.9 µM | 2.1 µM | 2.7 µM | 4.25 µM | 3.02 µM | 3.14 µM | 1.96 µM |
| CO/N=C(\COc1ccc2c(=O)c3ccccc3oc2c1)c1ccccc1 | 74.5 µM | 49.9 | 57.1 µM | > 100 µM | > 100 µM | > 100 µM | 63 µM | > 100 µM | > 100 µM | > 100 µM | 26.8 µM | 21.6 | 25.2 µM | > 100 µM | 38.1 µM | 39.6 µM | 24.2 µM | 33.2 µM | 40.8 µM | 41.4 µM |
| O=S(=O)(NC1CCCCC1)c1ccc2c(c1)OCCOCCOCCOCCO2 | > 100 µM | > 100 | > 100 µM | > 100 µM | > 100 µM | > 100 µM | > 100 µM | > 100 µM | > 100 µM | > 100 µM |  |  |  |  |  |  |  |  |  |  |
| COC(=O)c1c2c(c(C)[n+]([O-])c1C)C(=O)C=C(NCc1ccccc1)C2=O | 2.92 µM | 1.21 | 2.68 µM | 3.71 µM | 0.48 µM | 1.87 µM | 2.65 µM | 4.47 µM | 3.74 µM | 3.34 µM | 1.45 µM | 0.286 | 0.326 µM | 0.668 µM | 0.206 µM | 0.492 µM | 1.35 µM | 1.51 µM | 1.78 µM | 0.7 µM |
| C=CC(=O)N1CCC(c2ccc(C(N)=O)c(-c3ccc(Oc4ccccc4)cc3)n2)CC1 | 95.4 µM | > 100 | > 100 µM | > 100 µM | 41.9 µM | > 100 µM | > 100 µM | > 100 µM | 79.2 µM | > 100 µM | 22.7 µM | 30 | 39 µM | 33.9 µM | 20.6 µM | 19.1 µM | 12.9 µM | 50.5 µM | 20.3 µM | 39.6 µM |
| Cc1ccc(/C=C(\C#N)c2cc3ccccc3n2C)cc1 | > 26.7 µM | > 100 | > 100 µM | > 100 µM | > 100 µM | > 100 µM | > 100 µM | > 100 µM | > 100 µM | > 100 µM | 0.742 µM | 0.278 | 0.671 µM | 0.355 µM | 0.647 µM | 0.544 µM | 0.853 µM | 8.27 µM | 1.45 µM | 0.428 µM |
| COc1ccc(-c2cc(=O)n(-c3nc4ccccc4[nH]3)[nH]2)cc1OC | > 100 µM | 24.1 | > 100 µM | 38.1 µM | 34.9 µM | 76.2 µM | 18.6 µM | > 100 µM | 67.1 µM | > 100 µM | 23.7 µM | 3.79 | 19.5 µM | 2.66 µM | 4.08 µM | 6.08 µM | 3.2 µM | 10.2 µM | 15 µM | 8.56 µM |
| O=C(CCN1CCCC1)Nc1ccc2c(NCc3ccccc3)c3ccccc3nc2c1 | 3.04 µM | 1.67 | 1.59 µM |  | 2.61 µM | 1.67 µM | 4.05 µM | 1.85 µM | 2.91 µM | 1.85 µM | 1.4 µM | 0.454 | 0.377 µM | 0.493 µM | 1.31 µM | 0.383 µM | 1.55 µM | 0.457 µM | 0.551 µM | 0.439 µM |
| COc1ccc2c(c1)nc(NNC(=O)c1cnccn1)c1cccn12 | 3.62 µM | 2.99 | 3.39 µM | > 44.1 µM | 1.22 µM | 2.22 µM | 1.51 µM | 6.67 µM | 2.72 µM | 9.64 µM | 0.917 µM | 0.268 | 0.682 µM | 0.0678 µM | 0.27 µM | 0.107 µM | 0.0848 µM | 0.138 µM | 0.321 µM | 0.245 µM |
| O=C1CCc2c(sc3[nH]c(=S)n(-c4cc(C(F)(F)F)cc(C(F)(F)F)c4)c(=O)c23)C1 | 1.99 µM | 1.23 | 1.45 µM | 5.81 µM | 0.465 µM | 3.44 µM | 1.11 µM | > 45.4 µM | 7.04 µM | 1.36 µM | 0.325 µM | 0.294 | 0.336 µM | 0.349 µM | 0.217 µM | 0.446 µM | 0.292 µM | 0.469 µM | 0.801 µM | 0.344 µM |
